In patent US20260216294A1, “BETA 2-ADRENERGIC RECEPTOR AGONISTS FOR TREATMENT OR PREVENTION OF MUSCLE WASTING” (ATROGI AB, priority 2023, published 2026):

How the values were obtained:
L6-myotubes [1] = experiment: Glucose uptake in differentiated L6-myotubes (Biological Example 2); format: cell-based; settings: for Emax at 10 µM: read-out: Biological example 2 (GU)
Procedure, shortened: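 Differentiated L6 myotubes were serum-starved overnight in 0.5% fatty-acid-free BSA and then stimulated with compound or isoprenaline at 1×10^−5 M final. After 1 h 40 min cells were washed and re-dosed in glucose-free medium. Twenty minutes later, uptake of 50 nM ^3H-2-deoxyglucose over 10 min was measured by scintillation counting of NaOH lysates.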

L6-myotubes [2] = experiment: Measurement of intracellular cAMP levels in differentiated L6-myotubes (Biological Example 3); format: cell-based; settings: 0.25 h
Procedure, shortened: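 Serum-starved differentiated L6 myotubes stimulated 15 min with test compound at 1×10^−5 M final (isoprenaline as reference) in HBSS with 1% BSA, 5 mM HEPES, 1 mM IBMX, pH 7.4. Cells EtOH-extracted, lysed, and intracellular cAMP measured by AlphaScreen.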

[3] = glucose uptake in differentiated L6-myotubes, compound at 10 μM, activity relative to isoproterenol at 10 μM
[4] = intracellular cAMP in differentiated L6-myotubes, compound at 10 μM, activity relative to isoproterenol at 10 μM
[5] = glucose uptake, compound at 10 μM relative to isoproterenol at 10 μM
[6] = intracellular cAMP, compound at 10 μM relative to isoproterenol at 10 μM

Row | SMILES | Emax at 10 µM (L6-myotubes [1]; [3]) | Emax at 10 µM (L6-myotubes [2]; [4]) | Emax at 10 µM (L6-myotubes [1]; [5]) | Emax at 10 µM (L6-myotubes [2]; [6]) | Biological example 2 (GU) (L6-myotubes [1]; [3])
1 | CNS(=O)(=O)[C@H]1CC[C@@H](CC(C)(C)NC[C@H](O)c2cncc(F)c2)CC1 [Compound 495] | 50 to 75% | < 25% | – | – | –
2 | CC(=O)N[C@H]1CC[C@H](CC(C)(C)NC[C@H](O)c2cccc(F)c2)CC1 [Compound 383] | > 75% | 25 to 50% | – | – | –
3 | CCCC12CCC([C@H](O)c3cccc(F)c3)(CC1)N2 [Compound 183, (R)-(m-fluorophenyl)(4-propyl-7-azabicyclo[[2.2.1]]hept-1-yl)methanol] | – | – | 50 to 75% | 25 to 50% | –
4 | CCC[C@@H]1CC[C@H]([C@@H](O)c2cccc(F)c2)N1 [Compound 126] | – | – | 25 to 50% | < 25% | –
5 | COC(=O)[C@H]1CC[C@@H](C(C)(C)NC[C@H](O)c2cccc(F)c2)CC1 [Compound 328, (1S,4s)-8-[(R)-2-(m-fluorophenyl)-2-hydroxyethylamino]-7-methoxy-p-menthan-7-one] | > 75% | < 25% | – | – | –
6 | CC12CCC([C@@H](O)c3ccncc3F)(CC1)N2 [Compound 253, (S)-(3-fluoro-4-pyridyl)(4-methyl-7-azabicyclo[[2.2.1]]hept-1-yl)methanol] | < 25% | < 25% | – | – | –
7 | CC(C)(CC[C@H]1CC[C@H](C(=O)O)CC1)NC[C@H](O)c1cncc(F)c1 [Compound 343, (1R,4r)-4-{3-[(R)-2-(5-fluoro-3-pyridyl)-2-hydroxyethylamino]-3-methylbutyl} cyclohexanecarboxylic acid] | 25 to 50% | < 25% | – | – | –
8 | CC(C)(C[C@H]1CC[C@H](NC(=O)C(C)(C)C)CC1)NC[C@H](O)c1cccc(F)c1 [Compound 429] | > 75% | 25 to 50% | – | – | –
9 | O[C@H](c1cncc(F)c1)[C@H]1CC[C@@H](Cc2ccc(Cl)cc2)N1 [Compound 404, (R)-{(2R,5S)-5-[(p-chlorophenyl)methyl]-2-pyrrolidinyl}(5-fluoro-3-pyridyl)methanol] | > 75% | < 25% | – | – | –
10 | CCC[C@H]1CCC[C@H]([C@H](O)c2cccc(O)c2)N1 [Compound 64, (R)-[(2R,6S)-6-propyl-2-piperidyl](m-hydroxyphenyl)methanol] | – | – | > 75% | < 25% | –
11 | CC1(C)CCC[C@H]([C@@H](O)c2cccc(O)c2)N1 [Compound 103] | – | – | 25 to 50% | < 25% | –
12 | CC(=O)N[C@H]1CC[C@H](CNC[C@H](O)c2cncc(F)c2)CC1 [Compound 309] | 50 to 75% | < 25% | – | – | –
13 | CC(C)(C)NC[C@H](O)c1ccc(O)cn1 [Compound 95, 6-[(S)-2-(tert-butylamino)-1-hydroxyethyl]-3-pyridinol] | – | – | 50 to 75% | < 25% | –
14 | O[C@@H](CNC[C@H]1CC[C@@H](O)CC1)c1cccc(F)c1 [Compound 268, (R)-1-(m-fluorophenyl)-2-({[(1s,4S)-4-hydroxycyclohexyl]methyl}amino)-1-ethanol] | 25 to 50% | < 25% | – | – | –
15 | COC(=O)[C@H]1CC[C@H](CC(C)(C)NC[C@H](O)c2cncc(F)c2)CC1 [Compound 354, methyl (1R,4r)-4-{2-[(R)-2-(5-fluoro-3-pyridyl)-2-hydroxyethylamino]-2-methylpropyl} cyclohexanecarboxylate] | 50 to 75% | < 25% | – | – | –
16 | CO[C@H]1CC[C@H](C[C@H]2CC[C@H]([C@H](O)c3cncc(F)c3)N2)CC1 [Compound 341] | > 75% | < 25% | – | – | –
17 | CC1(C)CC[C@H]([C@H](O)c2cncc(O)c2)N1 [Compound 167, 5-{(R)-[(R)-5,5-dimethyl-2-pyrrolidinyl] hydroxymethyl}-3-pyridinol] | – | – | 50 to 75% | < 25% | –
18 | CC(=O)N[C@H]1CC[C@H](C[C@@H]2CC[C@H]([C@H](O)c3cccc(F)c3)N2)CC1 [Compound 485] | 50 to 75% | < 25% | – | – | –
19 | CCCCNCC(O)c1ccc(F)c(N)c1 (centres unmarked) [Compound 44, 1-(3-amino-4-fluorophenyl)-2-(butylamino)-1-ethanol] | – | – | 50 to 75% | < 25% | –
20 | CCC[C@H]1CCC[C@H]([C@@H](O)c2cc(F)cc(F)c2)N1 [Compound 66] | – | – | 25 to 50% | < 25% | –
21 | CS(=O)(=O)N(Cc1ccccc1)c1cccc(CC23CCC([C@@H](O)c4cccc(F)c4)(CC2)N3)c1 [Compound 512] | < 25% | < 25% | – | – | –
22 | CC(C)(C[C@H]1CC[C@@H](O)CC1)NC[C@H](O)c1cccc(F)c1 [Compound 302, (R)-2-{1,1-dimethyl-2-[(1s,4S)-4-hydroxycyclohexyl]ethylamino}-1-(m-fluorophenyl)-1-ethanol] | 50 to 75% | < 25% | – | – | –

Row | SMILES | Emax at 10 µM (L6-myotubes [1]; [3]) | Emax at 10 µM (L6-myotubes [2]; [4]) | Emax at 10 µM (L6-myotubes [1]; [5]) | Emax at 10 µM (L6-myotubes [2]; [6]) | Biological example 2 (GU) (L6-myotubes [1]; [3])
23 | CCOC(=O)CO[C@H]1CC[C@H](C(C)(C)NC[C@H](O)c2cccc(F)c2)CC1 [Compound 398, ethyl[[(1R,4r)-4-{1-[(R)-2-(m-fluorophenyl)-2-hydroxyethylamino]-1-methylethyl}cyclohexyloxy]]acetate] | > 75% | < 25% | – | – | –
24 | CC(C)(C)CNC[C@H](O)c1cccc(F)c1 [Compound 117, (R)-1-(m-fluorophenyl)-2-(neopentylamino)-1-ethanol] | – | – | 25 to 50% | < 25% | –
25 | CCC[C@H]1CCC[C@H]([C@@H](O)c2ccc(F)cc2)N1 [Compound 105] | – | – | 25 to 50% | < 25% | –
26 | CCCCNCC(O)c1ccc(=O)[nH]c1 (centres unmarked) [Compound 63, 5-[2-(butylamino)-1-hydroxyethyl]-2(1H)-pyridinone] | – | – | 25 to 50% | < 25% | –
27 | CC1(C)CC[C@H]([C@H](O)c2cccc(F)c2)N1 [Compound 110] | – | – | > 75% | < 25% | –
28 | CC12CC(C1)[C@@H]([C@@H](O)c1cccc(Cl)c1)N2 [Compound 207] | 25 to 50% | < 25% | – | – | –
29 | CCCC(C)NCC(O)c1ccc(O)c(Cl)c1 (centres unmarked) [Compound 19, 1-(3-chloro-4-hydroxyphenyl)-2-(1-methylbutylamino)-1-ethanol] | – | – | 25 to 50% | < 25% | –
30 | CO[C@H]1CC[C@H](C[C@@H]2CC[C@H]([C@H](O)c3ccccc3F)N2)CC1 [Compound 337, (R)-[(2R,5S)-5-{[(1r,4S)-4-methoxycyclohexyl]methyl}-2-pyrrolidinyl] (o-fluorophenyl)methanol] | > 75% | < 25% | – | – | –
31 | COC(=O)[C@H]1CC[C@@H](CCC(C)(C)NC[C@H](O)c2cccc(F)c2)CC1 [Compound 351, methyl (1S,4s)-4-{3-[(R)-2-(m-fluorophenyl)-2-hydroxyethylamino]-3-methylbutyl} cyclohexanecarboxylate] | > 75% | 25 to 50% | – | – | –
32 | CC(C)(C[C@H]1CC[C@@H](NC(=O)C2CC2)CC1)NC[C@H](O)c1cccc(F)c1 [Compound 447] | > 75% | < 25% | – | – | –
33 | CCCCNC[C@H](O)c1ccc(F)cc1O [Compound 81, (R)-2-(butylamino)-1-(4-fluoro-2-hydroxyphenyl)-1-ethanol] | – | – | 50 to 75% | < 25% | –
34 | O[C@@H](CNCCC[C@H]1CC[C@H](O)CC1)c1cccc(F)c1 [Compound 303, (R)-1-(m-fluorophenyl)-2-{3-[(1r,4S)-4-hydroxycyclohexyl]propylamino}-1-ethanol] | 50 to 75% | < 25% | – | – | –
35 | O[C@@H](CNCCC[C@H]1CC[C@@H](OCc2ccccc2)CC1)c1cccc(F)c1 [Compound 277, (R)-1-(m-fluorophenyl)-2-{3-[(1s,4R)-4-(benzyloxy)cyclohexyl]propylamino}-1-ethanol] | 25 to 50% | < 25% | – | – | –
36 | CC(C)(C)NC[C@H](O)c1cccc(F)c1 [Compound 54, (R)-2-(tert-butylamino)-1-(m-fluorophenyl)-1-ethanol] | – | – | > 75% | < 25% | –
37 | O[C@H](c1cncc(F)c1)C12CCC(CCc3ccc(OC(F)(F)F)cc3)(CC1)N2 [Compound 545, (R)-(5-fluoro-3-pyridyl){4-[2-(p-trifluoromethoxyphenyl)ethyl]-7-azabicyclo[[2.2.1]]hept-1-yl}methanol] | < 25% | < 25% | – | – | –
38 | CCC[C@@H]1CCC[C@H]([C@H](O)c2ccccc2F)N1 [Compound 97, (R)-[(2R,6R)-6-propyl-2-piperidyl](o-fluorophenyl)methanol] | – | – | 50 to 75% | < 25% | –
39 | O[C@@H](c1cncc(F)c1)C12CCC(CCCc3ccccc3)(CC1)N2 [Compound 531, (S)-(5-fluoro-3-pyridyl){4-(3-phenylpropyl)-7-azabicyclo[[2.2.1]]hept-1-yl}methanol] | 50 to 75% | < 25% | – | – | –
40 | CC(=O)N(C)[C@H]1CC[C@@H](CC(C)(C)NC[C@H](O)c2cncc(F)c2)CC1 [Compound 507] | – | < 25% | – | – | ++ (if it is between 75 and 50% it is denoted with ++)
41 | CC1(C)CC[C@H]([C@H](O)c2ccc(F)cc2)N1 [Compound 173] | – | – | 50 to 75% | < 25% | –
42 | CC(=O)N[C@H]1CC[C@H](CC(C)(C)NC[C@H](O)c2cccnc2C)CC1 [Compound 434] | > 75% | < 25% | – | – | –
43 | Oc1ccc(C(O)CNCC2CC2)cc1 (centres unmarked) [Compound 3, p-{2-[(cyclopropylmethyl)amino]-1-hydroxyethyl}phenol] | – | – | 50 to 75% | < 25% | –
